From paper PMC6767236, “Selective Cannabinoid 2 Receptor Agonists as Potential Therapeutic Drugs for the Treatment of Endotoxin-Induced Uveitis” (Molecules, 2019)

Target: T1, human CB1R (Homo sapiens, UniProt P21554)
T1 construct: host or cells: CHO
Experiment: cAMP assay, CHO cells expressing human CB1R
Format: cell-based
Settings: read-out: hCB1R: cAMP EC50
Protocol: The effect of ligands on the forskolin-stimulated accumulation of cAMP was determined using the LANCE ULTRA cAMP kit as per the manufacturer’s instruction (Perkin-Elmer Life Sciences, Boston, MA, USA).
For human CB2R and CB1R, cAMP assays were performed using CHO cells stably expressing human CB2R or human CB1R (DiscoveRx, Fremont, CA, USA) using a cAMP-Nano-TRF detection kit (Roche Diagnostics, Penzberg, Germany). Cells were seeded 17–24 h prior to the experiment at a density of 3 × 10^4 cells per well in a black 96-well plate with clear flat bottom (Corning, Wiesbaden, Germany) and incubated in 5% CO2 at 37 °C in a humidified incubator. The growth medium was exchanged with Krebs Ringer bicarbonate buffer with 1 mmol/L 3-isobutyl-1-methylxanthine (IBMX), 0.1% fatty acid-free BSA and incubated at 30 °C for 60 min. Agonist was added to a final assay volume of 100 μL and the mixture was incubated for 30 min at 30 °C. The assay was stopped by the addition of 50 μL 3 × lysis reagent and shaken for 2 h at room temperature. The time-resolved fluorescence energy transfer was measured using an LF502 Nanoscan FLT (IOM, Berlin, Germany), equipped with a laser as excitation source. cAMP content was determined from the function of a standard curve spanning from 10 to 0.13 nmol/L cAMP. Efficacies are expressed as percent relative to 1 µM CP55940.

T1 sequence (P21554 whole entry): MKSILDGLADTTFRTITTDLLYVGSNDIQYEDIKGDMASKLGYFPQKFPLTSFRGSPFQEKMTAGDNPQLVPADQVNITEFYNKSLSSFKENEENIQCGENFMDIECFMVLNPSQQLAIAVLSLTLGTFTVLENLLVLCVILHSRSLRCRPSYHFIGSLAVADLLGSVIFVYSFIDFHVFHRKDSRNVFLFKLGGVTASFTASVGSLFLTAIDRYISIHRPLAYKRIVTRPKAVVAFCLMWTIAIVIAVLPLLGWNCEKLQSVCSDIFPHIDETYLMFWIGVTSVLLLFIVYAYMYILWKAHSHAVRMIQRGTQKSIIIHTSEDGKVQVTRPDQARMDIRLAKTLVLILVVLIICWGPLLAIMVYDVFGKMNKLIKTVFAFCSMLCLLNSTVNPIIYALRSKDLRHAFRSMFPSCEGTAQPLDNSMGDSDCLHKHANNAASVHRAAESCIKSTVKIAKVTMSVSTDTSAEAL

For `CNC(=O)[C@@H](NC(=O)c1cc(OCC2(C)COC2)c(C2CC2)cn1)C(C)(C)C` [RO6851228, 5-Cyclopropyl-N-[(2S)-3,3-dimethyl-1-(methylamino)-1-oxobutan-2-yl]-4-[(3-methyloxetan-3-yl)methoxy]pyridine-2-carboxamide], the EC50 was > 10 µM.
